Data reported in patent US10322111B2, “Chemokine receptor binding heterocyclic compounds with enhanced efficacy” (Genzyme Corporation, priority 2001, dated 2019).
Where two headings read alike, the source gives them in different places.

Legend:
[1] = system: unseparated and low density nucleated cells; conditions: 80 μg/kg s.c.; for % CHG, nucleated cellularity PBL-LD / % CHG, nucleated cellularity PBL-US / Fold Change Compared to TIME = 0, nucleated cellularity PBL-LD, MEAN / Fold Change Compared to TIME = 0, nucleated cellularity PBL-US, MEAN: average of 5 donors
CFU-GM progenitor cells = conditions: 80 μg/kg s.c.

Compound: c1cc(CN2CCCNCCNCCCNCC2)ccc1CN1CCCNCCNCCCNCC1 [AMD3100, 1,1′-[1,4-phenylene-bis(methylene)]-bis-1,4,8,11-tetraazacyclotetradecane]
- FOLD CHANGE COMPARED TO TIME = 0, nucleated cellularity PBL-LD ([1]; P1, T = 1 h after injection): 2.07 fold
- FOLD CHANGE COMPARED TO TIME = 0, nucleated cellularity PBL-US ([1]; P1, T = 1 h after injection): 2.54 fold
- FOLD CHANGE COMPARED TO TIME = 0, nucleated cellularity PBL-LD ([1]; P1, T = 3 h after injection): 2.83 fold
- FOLD CHANGE COMPARED TO TIME = 0, nucleated cellularity PBL-US ([1]; P1, T = 3 h after injection): 3.55 fold
- FOLD CHANGE COMPARED TO TIME = 0, nucleated cellularity PBL-LD ([1]; P1, T = 6 h after injection): 4.07 fold
- FOLD CHANGE COMPARED TO TIME = 0, nucleated cellularity PBL-US ([1]; P1, T = 6 h after injection): 3.97 fold
- FOLD CHANGE COMPARED TO TIME = 0, nucleated cellularity PBL-LD ([1]; P1, T = 9 h after injection): 3.65 fold
- FOLD CHANGE COMPARED TO TIME = 0, nucleated cellularity PBL-US ([1]; P1, T = 9 h after injection): 3.27 fold
- FOLD CHANGE COMPARED TO TIME = 0, nucleated cellularity PBL-LD ([1]; P1, T = 24 h after injection): 1.01 fold
- FOLD CHANGE COMPARED TO TIME = 0, nucleated cellularity PBL-US ([1]; P1, T = 24 h after injection): 1.21 fold
- FOLD CHANGE COMPARED TO TIME = 0, nucleated cellularity PBL-LD ([1]; P2, T = 1 h after injection): 1.99 fold
- FOLD CHANGE COMPARED TO TIME = 0, nucleated cellularity PBL-US ([1]; P2, T = 1 h after injection): 1.38 fold
- FOLD CHANGE COMPARED TO TIME = 0, nucleated cellularity PBL-LD ([1]; P2, T = 3 h after injection): 3.25 fold
- FOLD CHANGE COMPARED TO TIME = 0, nucleated cellularity PBL-US ([1]; P2, T = 3 h after injection): 2.74 fold
- FOLD CHANGE COMPARED TO TIME = 0, nucleated cellularity PBL-LD ([1]; P2, T = 6 h after injection): 3.90 fold
- FOLD CHANGE COMPARED TO TIME = 0, nucleated cellularity PBL-US ([1]; P2, T = 6 h after injection): 2.94 fold
- FOLD CHANGE COMPARED TO TIME = 0, nucleated cellularity PBL-LD ([1]; P2, T = 9 h after injection): 4.43 fold
- FOLD CHANGE COMPARED TO TIME = 0, nucleated cellularity PBL-US ([1]; P2, T = 9 h after injection): 3.30 fold
- FOLD CHANGE COMPARED TO TIME = 0, nucleated cellularity PBL-LD ([1]; P2, T = 24 h after injection): 1.71 fold
- FOLD CHANGE COMPARED TO TIME = 0, nucleated cellularity PBL-US ([1]; P2, T = 24 h after injection): 1.43 fold
- FOLD CHANGE COMPARED TO TIME = 0, nucleated cellularity PBL-LD ([1]; P3, T = 1 h after injection): 1.48 fold
- FOLD CHANGE COMPARED TO TIME = 0, nucleated cellularity PBL-US ([1]; P3, T = 1 h after injection): 1.38 fold
- FOLD CHANGE COMPARED TO TIME = 0, nucleated cellularity PBL-LD ([1]; P3, T = 3 h after injection): 2.17 fold
- FOLD CHANGE COMPARED TO TIME = 0, nucleated cellularity PBL-US ([1]; P3, T = 3 h after injection): 2.02 fold
- FOLD CHANGE COMPARED TO TIME = 0, nucleated cellularity PBL-LD ([1]; P3, T = 6 h after injection): 2.27 fold
- FOLD CHANGE COMPARED TO TIME = 0, nucleated cellularity PBL-US ([1]; P3, T = 6 h after injection): 2.74 fold
- FOLD CHANGE COMPARED TO TIME = 0, nucleated cellularity PBL-LD ([1]; P3, T = 9 h after injection): 2.47 fold
- FOLD CHANGE COMPARED TO TIME = 0, nucleated cellularity PBL-US ([1]; P3, T = 9 h after injection): 2.69 fold
- FOLD CHANGE COMPARED TO TIME = 0, nucleated cellularity PBL-LD ([1]; P3, T = 24 h after injection): 0.79 fold
- FOLD CHANGE COMPARED TO TIME = 0, nucleated cellularity PBL-US ([1]; P3, T = 24 h after injection): 0.96 fold
- FOLD CHANGE COMPARED TO TIME = 0, nucleated cellularity PBL-LD ([1]; P4, T = 1 h after injection): 1.66 fold
- FOLD CHANGE COMPARED TO TIME = 0, nucleated cellularity PBL-US ([1]; P4, T = 1 h after injection): 1.36 fold
- FOLD CHANGE COMPARED TO TIME = 0, nucleated cellularity PBL-LD ([1]; P4, T = 3 h after injection): 2.82 fold
- FOLD CHANGE COMPARED TO TIME = 0, nucleated cellularity PBL-US ([1]; P4, T = 3 h after injection): 2.46 fold
- FOLD CHANGE COMPARED TO TIME = 0, nucleated cellularity PBL-LD ([1]; P4, T = 6 h after injection): 2.78 fold
- FOLD CHANGE COMPARED TO TIME = 0, nucleated cellularity PBL-US ([1]; P4, T = 6 h after injection): 2.60 fold
- FOLD CHANGE COMPARED TO TIME = 0, nucleated cellularity PBL-LD ([1]; P4, T = 9 h after injection): 2.48 fold
- FOLD CHANGE COMPARED TO TIME = 0, nucleated cellularity PBL-US ([1]; P4, T = 9 h after injection): 2.24 fold
- FOLD CHANGE COMPARED TO TIME = 0, nucleated cellularity PBL-LD ([1]; P4, T = 24 h after injection): 0.60 fold
- FOLD CHANGE COMPARED TO TIME = 0, nucleated cellularity PBL-US ([1]; P4, T = 24 h after injection): 0.77 fold
- FOLD CHANGE COMPARED TO TIME = 0, nucleated cellularity PBL-LD ([1]; P5, T = 1 h after injection): 2.10 fold
- FOLD CHANGE COMPARED TO TIME = 0, nucleated cellularity PBL-US ([1]; P5, T = 1 h after injection): 1.76 fold
- FOLD CHANGE COMPARED TO TIME = 0, nucleated cellularity PBL-LD ([1]; P5, T = 3 h after injection): 3.20 fold
- FOLD CHANGE COMPARED TO TIME = 0, nucleated cellularity PBL-US ([1]; P5, T = 3 h after injection): 3.23 fold
- FOLD CHANGE COMPARED TO TIME = 0, nucleated cellularity PBL-LD ([1]; P5, T = 6 h after injection): 5.30 fold
- FOLD CHANGE COMPARED TO TIME = 0, nucleated cellularity PBL-US ([1]; P5, T = 6 h after injection): 4.04 fold
- FOLD CHANGE COMPARED TO TIME = 0, nucleated cellularity PBL-LD ([1]; P5, T = 9 h after injection): 5.17 fold
- FOLD CHANGE COMPARED TO TIME = 0, nucleated cellularity PBL-US ([1]; P5, T = 9 h after injection): 3.96 fold
- FOLD CHANGE COMPARED TO TIME = 0, nucleated cellularity PBL-LD ([1]; P5, T = 24 h after injection): 1.12 fold
- FOLD CHANGE COMPARED TO TIME = 0, nucleated cellularity PBL-US ([1]; P5, T = 24 h after injection): 0.99 fold
- % CHG, nucleated cellularity PBL-LD ([1]; T = 1 h after injection): 86.2%
- % CHG, nucleated cellularity PBL-US ([1]; T = 1 h after injection): 68.6%
- Fold Change Compared to TIME = 0, nucleated cellularity PBL-LD, MEAN ([1]; T = 1 h after injection): 1.86 fold
- Fold Change Compared to TIME = 0, nucleated cellularity PBL-US, MEAN ([1]; T = 1 h after injection): 1.69 fold
- % CHG, nucleated cellularity PBL-LD ([1]; T = 3 h after injection): 185.6%
- % CHG, nucleated cellularity PBL-US ([1]; T = 3 h after injection): 180.2%
- Fold Change Compared to TIME = 0, nucleated cellularity PBL-LD, MEAN ([1]; T = 3 h after injection): 2.86 fold
- Fold Change Compared to TIME = 0, nucleated cellularity PBL-US, MEAN ([1]; T = 3 h after injection): 2.80 fold
- % CHG, nucleated cellularity PBL-LD ([1]; T = 6 h after injection): 266.3%
- % CHG, nucleated cellularity PBL-US ([1]; T = 6 h after injection): 225.8%
- Fold Change Compared to TIME = 0, nucleated cellularity PBL-LD, MEAN ([1]; T = 6 h after injection): 3.66 fold
- Fold Change Compared to TIME = 0, nucleated cellularity PBL-US, MEAN ([1]; T = 6 h after injection): 3.26 fold
- % CHG, nucleated cellularity PBL-LD ([1]; T = 9 h after injection): 264.3%
- % CHG, nucleated cellularity PBL-US ([1]; T = 9 h after injection): 209.4%
- Fold Change Compared to TIME = 0, nucleated cellularity PBL-LD, MEAN ([1]; T = 9 h after injection): 3.64 fold
- Fold Change Compared to TIME = 0, nucleated cellularity PBL-US, MEAN ([1]; T = 9 h after injection): 3.09 fold
- % CHG, nucleated cellularity PBL-LD ([1]; T = 24 h after injection): 4.6%
- % CHG, nucleated cellularity PBL-US ([1]; T = 24 h after injection): 7.0%
- Fold Change Compared to TIME = 0, nucleated cellularity PBL-LD, MEAN ([1]; T = 24 h after injection): 1.05 fold
- Fold Change Compared to TIME = 0, nucleated cellularity PBL-US, MEAN ([1]; T = 24 h after injection): 1.07 fold
- Absolute # of Progenitors per ML, CFU-GM, AGAR Culture (CFU-GM progenitor cells; P1, T = 1 h after injection): 710 per ML
- fold change from T=0, CFU-GM, agar culture (CFU-GM progenitor cells; P1, T = 1 h after injection): 3.05 fold
- Absolute # of Progenitors per ML, CFU-GM, AGAR Culture (CFU-GM progenitor cells; P1, T = 3 h after injection): 2070 per ML
- fold change from T=0, CFU-GM, agar culture (CFU-GM progenitor cells; P1, T = 3 h after injection): 8.88 fold
- Absolute # of Progenitors per ML, CFU-GM, AGAR Culture (CFU-GM progenitor cells; P1, T = 6 h after injection): 4142 per ML
- fold change from T=0, CFU-GM, agar culture (CFU-GM progenitor cells; P1, T = 6 h after injection): 17.77 fold
- Absolute # of Progenitors per ML, CFU-GM, AGAR Culture (CFU-GM progenitor cells; P2, T = 1 h after injection): 376 per ML
- fold change from T=0, CFU-GM, agar culture (CFU-GM progenitor cells; P2, T = 1 h after injection): 3.74 fold
- Absolute # of Progenitors per ML, CFU-GM, AGAR Culture (CFU-GM progenitor cells; P2, T = 3 h after injection): 953 per ML
- fold change from T=0, CFU-GM, agar culture (CFU-GM progenitor cells; P2, T = 3 h after injection): 9.49 fold
